Experimental data: ChEMBL document CHEMBL5678818, “Discovery of potent SOS1 inhibitors that block RAS activation via disruption of the RAS-SOS1 interaction” (Proc Natl Acad Sci U S A, 2019)

Tests used:
[1] = biological target: Serine/threonine-protein kinase OSR1 (Homo sapiens) (UniProt O95747); assay: Inhibition of OSR1 (unknown origin) assessed as residual activity at 1000 nM by KINOMEscan analysis relative to control
[2] = biological target: T1, Rhodopsin kinase GRK7 (Homo sapiens) (UniProt Q8WTQ7); assay: Inhibition of GRK7 (unknown origin) assessed as residual activity at 1000 nM by KINOMEscan analysis relative to control
T1 sequence (whole entry): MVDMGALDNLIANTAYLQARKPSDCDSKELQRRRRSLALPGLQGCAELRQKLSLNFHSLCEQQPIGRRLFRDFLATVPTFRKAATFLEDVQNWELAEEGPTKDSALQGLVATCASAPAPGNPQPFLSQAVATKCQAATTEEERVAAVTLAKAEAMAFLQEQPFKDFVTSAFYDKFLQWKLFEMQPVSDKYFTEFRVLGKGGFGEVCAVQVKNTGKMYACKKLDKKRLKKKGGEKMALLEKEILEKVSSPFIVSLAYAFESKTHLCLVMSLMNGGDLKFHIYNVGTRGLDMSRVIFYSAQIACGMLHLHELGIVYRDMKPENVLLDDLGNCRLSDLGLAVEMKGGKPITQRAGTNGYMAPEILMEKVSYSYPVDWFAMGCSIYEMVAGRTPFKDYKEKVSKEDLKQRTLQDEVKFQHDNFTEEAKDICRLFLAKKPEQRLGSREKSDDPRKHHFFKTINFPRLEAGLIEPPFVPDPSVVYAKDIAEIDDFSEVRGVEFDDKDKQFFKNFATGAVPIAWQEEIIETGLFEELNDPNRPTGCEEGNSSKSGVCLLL

[3] = biological target: Serine/threonine-protein kinase MARK2 (Homo sapiens) (UniProt Q7KZI7); assay: Inhibition of MARK2 (unknown origin) assessed as residual activity at 1000 nM by KINOMEscan analysis relative to control
Chain of Serine/threonine-protein kinase MARK2 (Homo sapiens) (Q7KZI7 whole entry): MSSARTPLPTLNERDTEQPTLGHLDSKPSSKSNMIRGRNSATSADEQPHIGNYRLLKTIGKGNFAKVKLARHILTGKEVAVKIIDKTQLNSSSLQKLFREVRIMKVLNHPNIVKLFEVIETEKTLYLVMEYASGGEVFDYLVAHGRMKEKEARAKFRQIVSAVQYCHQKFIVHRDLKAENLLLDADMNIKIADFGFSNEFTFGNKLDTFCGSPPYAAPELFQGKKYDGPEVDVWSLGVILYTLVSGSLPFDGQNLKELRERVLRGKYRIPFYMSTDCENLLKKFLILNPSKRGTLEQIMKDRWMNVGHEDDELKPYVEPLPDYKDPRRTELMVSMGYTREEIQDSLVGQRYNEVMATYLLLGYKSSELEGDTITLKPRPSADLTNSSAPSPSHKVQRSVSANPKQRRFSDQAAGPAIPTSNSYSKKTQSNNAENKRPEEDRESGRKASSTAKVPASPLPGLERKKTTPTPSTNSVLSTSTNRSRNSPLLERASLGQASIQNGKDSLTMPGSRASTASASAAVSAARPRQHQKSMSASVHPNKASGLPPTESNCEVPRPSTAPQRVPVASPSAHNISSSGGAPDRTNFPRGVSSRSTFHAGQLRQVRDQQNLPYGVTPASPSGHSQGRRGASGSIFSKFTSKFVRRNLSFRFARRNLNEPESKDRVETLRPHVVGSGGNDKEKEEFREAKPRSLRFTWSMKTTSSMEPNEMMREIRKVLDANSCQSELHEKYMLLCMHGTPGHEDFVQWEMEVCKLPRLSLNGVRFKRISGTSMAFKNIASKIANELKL

[4] = biological target: T2, Serine/threonine-protein kinase RIO1 (Homo sapiens) (UniProt Q9BRS2); assay: Inhibition of RIOK1 (unknown origin) assessed as residual activity at 1000 nM by KINOMEscan analysis relative to control
T2 sequence (whole entry): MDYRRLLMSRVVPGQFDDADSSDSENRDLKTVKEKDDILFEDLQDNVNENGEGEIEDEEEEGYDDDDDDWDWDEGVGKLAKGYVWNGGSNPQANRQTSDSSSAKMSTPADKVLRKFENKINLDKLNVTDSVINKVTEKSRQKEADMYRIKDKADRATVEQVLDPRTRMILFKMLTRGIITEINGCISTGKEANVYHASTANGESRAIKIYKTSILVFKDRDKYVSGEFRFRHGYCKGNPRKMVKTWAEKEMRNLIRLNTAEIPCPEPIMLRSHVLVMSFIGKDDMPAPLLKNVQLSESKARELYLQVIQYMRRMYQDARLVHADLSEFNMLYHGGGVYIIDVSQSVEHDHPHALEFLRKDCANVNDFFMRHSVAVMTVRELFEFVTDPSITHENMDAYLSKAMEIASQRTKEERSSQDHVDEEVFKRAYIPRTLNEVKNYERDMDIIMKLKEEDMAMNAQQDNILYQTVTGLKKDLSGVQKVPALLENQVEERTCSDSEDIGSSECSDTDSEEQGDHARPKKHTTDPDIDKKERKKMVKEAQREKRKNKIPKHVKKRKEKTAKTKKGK

[5] = biological target: Calcium/calmodulin-dependent protein kinase type II subunit gamma (Homo sapiens) (UniProt Q13555); assay: Inhibition of CAMK2G (unknown origin) assessed as residual activity at 1000 nM by KINOMEscan analysis relative to control
Chain of Calcium/calmodulin-dependent protein kinase type II subunit gamma (Homo sapiens) (Q13555 whole entry): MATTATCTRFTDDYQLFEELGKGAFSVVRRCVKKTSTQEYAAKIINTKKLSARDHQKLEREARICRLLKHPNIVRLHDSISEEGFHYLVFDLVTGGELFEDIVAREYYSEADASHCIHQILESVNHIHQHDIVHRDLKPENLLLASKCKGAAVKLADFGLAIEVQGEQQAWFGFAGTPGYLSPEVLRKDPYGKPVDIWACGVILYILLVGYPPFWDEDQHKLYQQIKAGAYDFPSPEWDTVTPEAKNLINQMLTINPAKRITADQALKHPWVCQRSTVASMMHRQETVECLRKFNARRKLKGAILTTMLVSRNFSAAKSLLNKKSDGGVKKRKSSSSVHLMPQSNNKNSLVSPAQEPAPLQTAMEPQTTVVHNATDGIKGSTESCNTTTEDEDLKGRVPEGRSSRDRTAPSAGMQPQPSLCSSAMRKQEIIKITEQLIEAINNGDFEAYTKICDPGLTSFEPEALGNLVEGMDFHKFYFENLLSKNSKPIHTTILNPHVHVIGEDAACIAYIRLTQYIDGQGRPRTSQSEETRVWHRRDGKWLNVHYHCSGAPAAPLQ

[6] = biological target: T3, Dual specificity tyrosine-phosphorylation-regulated kinase 2 (Homo sapiens) (UniProt Q92630); assay: Inhibition of DYRK2 (unknown origin) assessed as residual activity at 1000 nM by KINOMEscan analysis relative to control
T3 sequence (whole entry): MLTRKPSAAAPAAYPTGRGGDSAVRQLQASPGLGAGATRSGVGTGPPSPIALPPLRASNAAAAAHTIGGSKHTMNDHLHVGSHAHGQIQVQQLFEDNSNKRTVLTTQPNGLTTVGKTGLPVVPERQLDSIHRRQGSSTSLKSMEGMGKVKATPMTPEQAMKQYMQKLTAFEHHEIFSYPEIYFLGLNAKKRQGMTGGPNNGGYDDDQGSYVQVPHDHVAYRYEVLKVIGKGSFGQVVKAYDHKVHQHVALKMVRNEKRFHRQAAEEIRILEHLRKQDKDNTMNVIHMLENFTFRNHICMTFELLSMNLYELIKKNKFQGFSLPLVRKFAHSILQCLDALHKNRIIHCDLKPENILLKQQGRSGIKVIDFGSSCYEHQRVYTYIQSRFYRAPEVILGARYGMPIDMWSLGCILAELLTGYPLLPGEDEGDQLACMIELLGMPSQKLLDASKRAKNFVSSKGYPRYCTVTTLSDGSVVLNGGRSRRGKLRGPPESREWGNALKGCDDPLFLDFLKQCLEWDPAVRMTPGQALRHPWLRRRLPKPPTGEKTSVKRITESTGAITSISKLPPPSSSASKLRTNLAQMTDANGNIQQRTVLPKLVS

[7] = biological target: Mitogen-activated protein kinase kinase kinase kinase 4 (Homo sapiens) (UniProt O95819); assay: Inhibition of MAP4K4 (unknown origin) assessed as residual activity at 1000 nM by KINOMEscan analysis relative to control
Chain of Mitogen-activated protein kinase kinase kinase kinase 4 (Homo sapiens) (O95819 2-1239 limits assumed): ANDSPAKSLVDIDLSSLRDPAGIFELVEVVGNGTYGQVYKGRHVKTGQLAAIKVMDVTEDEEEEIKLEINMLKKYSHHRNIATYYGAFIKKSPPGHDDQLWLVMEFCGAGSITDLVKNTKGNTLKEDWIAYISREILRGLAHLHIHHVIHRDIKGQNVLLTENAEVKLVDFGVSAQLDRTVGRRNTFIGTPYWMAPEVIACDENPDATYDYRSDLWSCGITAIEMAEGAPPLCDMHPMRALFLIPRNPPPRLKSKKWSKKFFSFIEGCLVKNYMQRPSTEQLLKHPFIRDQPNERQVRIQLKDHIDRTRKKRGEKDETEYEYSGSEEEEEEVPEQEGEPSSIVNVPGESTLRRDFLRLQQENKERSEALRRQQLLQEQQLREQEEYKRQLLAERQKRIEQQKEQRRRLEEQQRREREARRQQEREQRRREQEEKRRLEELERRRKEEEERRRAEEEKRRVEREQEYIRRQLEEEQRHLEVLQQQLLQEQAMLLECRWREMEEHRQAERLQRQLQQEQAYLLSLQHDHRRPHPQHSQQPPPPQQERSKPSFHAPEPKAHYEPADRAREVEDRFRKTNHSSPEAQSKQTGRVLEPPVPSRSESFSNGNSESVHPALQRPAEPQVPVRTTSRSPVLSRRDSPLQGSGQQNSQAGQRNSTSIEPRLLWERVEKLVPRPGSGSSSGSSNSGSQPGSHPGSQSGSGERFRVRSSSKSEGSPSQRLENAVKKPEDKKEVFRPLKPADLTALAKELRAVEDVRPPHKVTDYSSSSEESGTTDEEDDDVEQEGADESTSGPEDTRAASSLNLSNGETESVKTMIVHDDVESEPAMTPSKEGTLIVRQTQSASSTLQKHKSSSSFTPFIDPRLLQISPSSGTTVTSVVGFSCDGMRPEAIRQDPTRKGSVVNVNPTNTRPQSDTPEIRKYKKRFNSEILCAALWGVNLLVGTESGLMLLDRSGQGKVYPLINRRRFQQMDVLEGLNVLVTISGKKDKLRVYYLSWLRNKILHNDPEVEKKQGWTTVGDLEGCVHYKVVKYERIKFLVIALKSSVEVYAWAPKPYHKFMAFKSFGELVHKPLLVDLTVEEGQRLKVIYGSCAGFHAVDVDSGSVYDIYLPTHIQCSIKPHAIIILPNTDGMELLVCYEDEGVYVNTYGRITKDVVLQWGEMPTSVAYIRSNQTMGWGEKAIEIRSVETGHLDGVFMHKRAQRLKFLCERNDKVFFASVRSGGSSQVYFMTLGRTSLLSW

[8] = biological target: Protein kinase C delta type (Homo sapiens) (UniProt Q05655); assay: Inhibition of PRKCD (unknown origin) assessed as residual activity at 1000 nM by KINOMEscan analysis relative to control
Chain of Protein kinase C delta type (Homo sapiens) (Q05655 whole entry, looked up): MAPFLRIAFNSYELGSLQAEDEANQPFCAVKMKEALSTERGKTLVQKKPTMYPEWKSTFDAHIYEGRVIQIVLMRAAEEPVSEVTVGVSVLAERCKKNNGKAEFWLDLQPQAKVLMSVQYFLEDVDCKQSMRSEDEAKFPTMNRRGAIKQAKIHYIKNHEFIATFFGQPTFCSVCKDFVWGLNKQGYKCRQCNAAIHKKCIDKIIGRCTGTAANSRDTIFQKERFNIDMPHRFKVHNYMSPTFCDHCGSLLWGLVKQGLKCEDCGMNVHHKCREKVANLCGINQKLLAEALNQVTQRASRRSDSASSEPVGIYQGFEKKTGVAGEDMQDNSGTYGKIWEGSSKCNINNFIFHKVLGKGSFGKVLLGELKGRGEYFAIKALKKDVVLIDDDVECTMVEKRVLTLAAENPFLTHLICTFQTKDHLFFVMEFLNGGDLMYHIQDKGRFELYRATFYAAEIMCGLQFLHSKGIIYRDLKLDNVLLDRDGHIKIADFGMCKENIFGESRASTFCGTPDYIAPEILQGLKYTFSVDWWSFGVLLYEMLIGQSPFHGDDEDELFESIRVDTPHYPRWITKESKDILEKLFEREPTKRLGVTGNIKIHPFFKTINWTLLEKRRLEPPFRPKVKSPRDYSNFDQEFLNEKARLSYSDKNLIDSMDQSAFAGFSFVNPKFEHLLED

[9] = system: Receptor-type tyrosine-protein kinase FLT3 (Homo sapiens), P36888 [R834Q]; assay: Inhibition of FLT3 R834Q mutant (unknown origin) assessed as residual activity at 1000 nM by KINOMEscan analysis relative to control
[10] = species on record: Homo sapiens; assay: Inhibition of JNK2 (unknown origin) assessed as residual activity at 1000 nM by KINOMEscan analysis relative to control
[11] = system: Tyrosine-protein kinase ABL1 (Homo sapiens), P00519 [H396P]; assay: Inhibition of phosphorylated ABL1 H396P mutant (unknown origin) assessed as residual activity at 1000 nM by KINOMEscan analysis relative to control
[12] = biological target: Activin receptor type-2B (Homo sapiens) (UniProt Q13705); assay: Inhibition of ACVR2B (unknown origin) assessed as residual activity at 1000 nM by KINOMEscan analysis relative to control
Chain of Activin receptor type-2B (Homo sapiens) (Q13705 whole entry): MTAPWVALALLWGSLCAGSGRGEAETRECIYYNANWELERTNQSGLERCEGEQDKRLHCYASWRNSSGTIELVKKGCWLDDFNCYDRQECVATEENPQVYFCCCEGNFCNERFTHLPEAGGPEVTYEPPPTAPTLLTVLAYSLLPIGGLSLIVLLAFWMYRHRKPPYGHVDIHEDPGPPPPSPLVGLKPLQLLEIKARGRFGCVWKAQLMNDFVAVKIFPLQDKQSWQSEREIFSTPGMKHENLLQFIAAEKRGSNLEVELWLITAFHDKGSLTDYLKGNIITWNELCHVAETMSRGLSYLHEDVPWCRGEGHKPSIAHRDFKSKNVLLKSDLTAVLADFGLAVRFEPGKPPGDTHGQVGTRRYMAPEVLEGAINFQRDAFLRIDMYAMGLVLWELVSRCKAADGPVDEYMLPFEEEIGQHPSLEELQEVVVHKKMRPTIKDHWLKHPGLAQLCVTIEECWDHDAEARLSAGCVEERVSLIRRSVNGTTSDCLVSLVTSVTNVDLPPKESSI

[13] = biological target: Casein kinase II subunit alpha' (Homo sapiens) (UniProt P19784); assay: Inhibition of CSNK2A2 (unknown origin) assessed as residual activity at 1000 nM by KINOMEscan analysis relative to control
Chain of Casein kinase II subunit alpha' (Homo sapiens) (P19784 whole entry, looked up): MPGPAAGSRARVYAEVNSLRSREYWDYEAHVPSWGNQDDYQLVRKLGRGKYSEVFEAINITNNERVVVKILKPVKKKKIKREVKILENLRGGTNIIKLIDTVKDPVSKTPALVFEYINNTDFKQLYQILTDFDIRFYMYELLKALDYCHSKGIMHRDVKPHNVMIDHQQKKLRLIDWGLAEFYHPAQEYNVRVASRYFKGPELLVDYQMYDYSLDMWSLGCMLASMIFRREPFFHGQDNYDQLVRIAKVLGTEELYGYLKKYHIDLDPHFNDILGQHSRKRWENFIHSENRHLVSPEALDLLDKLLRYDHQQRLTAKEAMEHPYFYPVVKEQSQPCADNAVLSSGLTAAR

Chain of Serine/threonine-protein kinase OSR1 (Homo sapiens) (O95747 whole entry, looked up): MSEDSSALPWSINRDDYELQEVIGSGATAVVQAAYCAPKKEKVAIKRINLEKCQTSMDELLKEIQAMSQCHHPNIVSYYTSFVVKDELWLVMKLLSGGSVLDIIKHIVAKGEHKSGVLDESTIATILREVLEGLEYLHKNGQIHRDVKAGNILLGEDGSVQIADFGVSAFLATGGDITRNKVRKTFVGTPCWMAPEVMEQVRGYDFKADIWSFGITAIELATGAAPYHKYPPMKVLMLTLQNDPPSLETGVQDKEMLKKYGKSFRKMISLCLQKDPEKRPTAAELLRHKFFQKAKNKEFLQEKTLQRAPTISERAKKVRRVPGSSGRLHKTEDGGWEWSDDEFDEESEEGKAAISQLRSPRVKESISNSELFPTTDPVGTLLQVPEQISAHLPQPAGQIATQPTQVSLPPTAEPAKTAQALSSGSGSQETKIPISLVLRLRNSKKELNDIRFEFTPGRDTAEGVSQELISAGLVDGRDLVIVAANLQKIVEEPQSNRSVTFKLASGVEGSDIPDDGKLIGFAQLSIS

| Structure (SMILES) | Activity [1] [%] | Activity [2] [%] | Activity [3] [%] | Activity [4] [%] | Activity [5] [%] | Activity [6] [%] | Activity [7] [%] | Activity [8] [%] | Activity [9] [%] | Activity [10] [%] | Activity [11] [%] | Activity [12] [%] | Activity [13] [%] |
| --- | --- | --- | --- | --- | --- | --- | --- | --- | --- | --- | --- | --- | --- |
| COc1cc2nc(C)nc(N[C@H](C)c3cccc(-c4cn[nH]c4)c3)c2cc1OC | 93 | 100 | 100 | 49 | 83 | 99 | 98 | 59 | 89 | 71 | 91 | 91 | 100 |
| COc1cc2ncnc(N[C@H](C)c3cccc4ccccc34)c2cc1OC | 97 | 81 | 75 | 82 | 92 | 90 | 100 | 81 | 91 | 93 | 93 | 100 | 90 |
